Measured values from US20110110924A1, “Resistin as a Marker and Therapeutic Target for Cardiovascular Disease” (priority 2004, published 2011).
Peptide text beside a SMILES is read from it. * marks the point of attachment. Cbz = O=C(OCc1ccccc1)*

Tests used:
[1] = test system: resistin mRNA in primary human macrophages; assay: Resistin mRNA expression in primary human macrophages (real time PCR); type: cell-based; conditions: for effect on induction of resistin by LPS: pretreated 2 h, then LPS (1 ng/ml) 24 h
Protocol: (§1) Peripheral blood mononuclear cells were isolated from whole blood of healthy donors following apheresis and elutriation. […] Cells were plated in 24 well plates at a density of 10^6 cells per well, allowed to adhere for 4 hours, then washed with Dulbecco's Modified Eagles Medium (DMEM) and further cultured in 10% FBS in DMEM supplemented with 5 ng/ml GM-CSF (Sigma) to promote macrophage differentiation. All experiments were performed after overnight equilibration with macrophage serum free medium (Gibco/Invitrogen) supplemented with 5 ng/ml GM-CSF. […] Adenovirus expressing activated IKK in pAD-easy™ vector with GFP and control vector were a generous gift from Steven Shoelson.
RNA was isolated using RNeasy® Mini Kit (Qiagen), then subjected to DNAse digestion followed by reverse transcription (Invitrogen). mRNA transcripts were quantified by the dual-labeled fluorogenic probe method for real time PCR, using a Prism® 7900 thermal cycler and sequence detector (Perkin Elmer/ABI). Real time PCR was performed by using Taqman® Universal Polymerase Master Mix (Applied Biosystems). The primers and probes used in the real-time PCR were the following: […]
The cycle number at which the transcripts of the gene of interest was detectable (CT) was normalized to the cycle number of 36B4 detection, referred to as δ CT. The fold change of the gene of interest expression relative to the vehicle treated group was expressed as 2^− δδ^CT, in which δδ CT equals the δCT of the compound treated group minus δCT of the chosen control group, which was normalized to 1.

[2] = test system: resistin protein secretion by human macrophages; assay: Resistin protein secretion by primary human macrophages (ELISA); type: cell-based
Protocol: as §1
Resistin concentrations, in cell media and human plasma, were assessed with a commercially available ELISA (Linco) and normalized to cell protein.

[3] = test system: sTNFR2 secretion by human macrophages; assay: sTNFR2 secretion into medium by primary human macrophages; type: cell-based; conditions: LPS 1 μg/ml, time course
Protocol: (§2) Peripheral blood mononuclear cells were isolated from whole blood of healthy donors following apheresis and elutriation. Greater than 90% of these monocytes expressed CD14 and HLA-DR. Cells were plated in 24 well plates at a density of 10^6 cells per well, allowed to adhere for 4 hours, then washed with Dulbecco's Modified Eagles Medium (DMEM) and further cultured in 10% FBS in DMEM supplemented with 5 ng/ml GM-CSF (Sigma) to promote macrophage differentiation. All experiments were performed after overnight equilibration with macrophage serum free medium (Gibco/Invitrogen) supplemented with 5 ng/ml GM-CSF. […]
Resistin concentrations, in cell media and human plasma, were assessed with a commercially available ELISA (Linco) and normalized to cell protein. […] Direct comparison of standard curves generated by the Linco kit with another commercially available resistin ELISA (Biovendor) yielded high correlation (rho=0.99, p<0.001), except that the Biovendor results were approximately 30% lower than those determined with the Linco assay. […] Resistin levels in 40 plasma samples were measured using both Linco and Biovendor ELISA kits, with moderate correlation (rho=0.66). Levels of soluble TNFα Receptor-2 were measured using a commercially available immunoassay (R&D Systems). […]

[4] = test system: TNFα mRNA in primary human macrophages; assay: TNFα mRNA expression in primary human macrophages (real time PCR); type: cell-based; conditions: LPS 1 μg/ml
Protocol: as §2, with “GM-CSF. Cells were treated as indicated with LPS (Sigma), aspirin (Sigma), SN50 and control peptide (Biomol), MG132, PD98059, SB20358 (Calbiochem), and TNFα (R&D Systems).” for “GM-CSF.”
RNA was isolated using RNeasy® Mini Kit (Qiagen), then subjected to DNAse digestion followed by reverse transcription (Invitrogen). mRNA transcripts were quantified by the dual-labeled fluorogenic probe method for real time PCR, using a Prism® 7900 thermal cycler and sequence detector (Perkin Elmer/ABI). […]
Primer and probe for TNFα was obtained from ABI. […] The fold change of the gene of interest expression relative to the vehicle treated group was expressed as 2^− δδ^CT, in which δδ CT equals the δCT of the compound treated group minus δCT of the chosen control group, which was normalized to 1.

[5] = test system: TNFα secretion by human macrophages; assay: TNFα secretion into medium by primary human macrophages; type: cell-based; conditions: LPS 1 μg/ml, time course
Protocol: Peripheral blood mononuclear cells were isolated from whole blood of healthy donors following apheresis and elutriation. Greater than 90% of these monocytes expressed CD14 and HLA-DR. Cells were plated in 24 well plates at a density of 10^6 cells per well, allowed to adhere for 4 hours, then washed with Dulbecco's Modified Eagles Medium (DMEM) and further cultured in 10% FBS in DMEM supplemented with 5 ng/ml GM-CSF (Sigma) to promote macrophage differentiation. All experiments were performed after overnight equilibration with macrophage serum free medium (Gibco/Invitrogen) supplemented with 5 ng/ml GM-CSF. Cells were treated as indicated with LPS (Sigma), aspirin (Sigma), SN50 and control peptide (Biomol), MG132, PD98059, SB20358 (Calbiochem), and TNFα (R&D Systems). Neutralizing antibodies to TNFα, IL-6, and anti-IL-6α, as well as control IgG were obtained from R&D Systems. Adenovirus expressing activated IKK in pAD-easy™ vector with GFP and control vector were a generous gift from Steven Shoelson.

[6] = test system: mouse resistin in mouse peritoneal macrophages; assay: Resistin expression in activated mouse peritoneal macrophages; type: cell-based; conditions: macrophages harvested after thioglycolate treatment; data not shown
[7] = test system: plasma resistin; assay: Human endotoxemia study, plasma resistin (ELISA); type: in vivo; conditions: for increase of plasma resistin levels: healthy volunteers
Protocol: In another experiment, short term variation in plasma levels was examined by repeated sampling in young healthy control subjects of an additional clinical research study (Reilly et al, 2004c, and Lehrke, 2004, both cited above). Baseline variability in plasma resistin was assessed over a 24 hour period, in healthy young volunteers (n=6; three male and three females; age 24-34; BMI 24.3±1.07) without any past medical history and on no medications. These subjects were recruited to a 60-hour inpatient, General Clinical Research Center (GCRC) protocol designed to assess the metabolic responses to an inflammatory stimulus. Plasma resistin levels were determined in serial blood samples, collected at eight time points over 24 hours prior to the intravenous administration of human-research-grade endotoxin (3 ng/kg) as described in more detail in Reilly et al, 2004c, cited above.
Resistin concentrations, in cell media and human plasma, were assessed with a commercially available ELISA (Linco) and normalized to cell protein. Average correlation coefficient for standards using 4 parameter fit was 0.99. Intra-assay and inter-assay coefficients of variance were 4.7% and 9.1%, respectively. Direct comparison of standard curves generated by the Linco kit with another commercially available resistin ELISA (Biovendor) yielded high correlation (rho=0.99, p<0.001), except that the Biovendor results were approximately 30% lower than those determined with the Linco assay. This appeared to be related to the standards used for calibration. Discrepant absolute values among different assays, including the Biovendor assay, were recently described (Pfutzner 2003 cited above). Resistin levels in 40 plasma samples were measured using both Linco and Biovendor ELISA kits, with moderate correlation (rho=0.66). Levels of soluble TNFα Receptor-2 were measured using a commercially available immunoassay (R&D Systems). Intra-assay and inter assay coefficients of variance were 5.1% and 9.8%, respectively.
Healthy volunteers (n=6, 3 male, 3 female) aged 18-45 with BMI between 20 and 30 and on no medications were studied. The University of Pennsylvania Institutional Review Board approved the study protocol and all subjects gave written informed consent. Following screening and exclusion of subjects with any clinical or laboratory abnormalities, subjects were admitted to the General Clinical Research Center at the University of Pennsylvania for a 60 hour stay. Serial blood samples were collected for 24 hours prior to and 24 hours following the intravenous administration of human research grade endotoxin [obtained from NIH Clinical Center, reference endotoxin (CCRE) (lots 1 and 2; NIHCC PDS #67801)] at a dose of 3 ng/kg given at 6 AM. Plasma and whole blood RNA (PAX tube isolators, Qiagen) samples were isolated from blood, and stored under appropriate conditions for subsequent assays.

[8] = LPS 24 h treatment, increasing concentration
[9] = human macrophages in cell culture

## CC(=O)Oc1ccccc1C(=O)O [aspirin]
[1]; pre-treated with aspirin 2 h, then LPS (1 μg/ml) and aspirin 24 h, dose-dependent
  effect on endotoxin-induced resistin expression: dramatically decreased

## lipopolysaccharide [LPS]
[2]; LPS 1 μg/ml, time course, normalized to cell protein
  maximal secreted protein level: resistin: 21.9 ng/mL/mg
[2]; [8]
  effect on resistin protein secretion into the medium: increase in resistin protein secretion
[2]; [9]
  time of induction of resistin protein after LPS exposure: 6 to 24 h
[3]
  maximal secreted protein level: sTNFR2: 39.3 ng/mL/mg
[4]
  time at which TNFα gene expression was detectable after LPS: 2 h
  time of peak TNFα gene expression after LPS exposure: 6 h
[5]
  maximal secreted protein level: TNFα: 207.2 ng/mL/mg
[1]; LPS 1 μg/ml
  time of peak resistin gene expression after LPS: 24 h
[1]; [8]
  effect on resistin gene expression: dramatic, dose-responsive increase
[1]; [9]
  time of induction of resistin mRNA after LPS exposure: 6 to 24 h
[6]
  mouse resistin expression after LPS: did not express detectable levels
[7]; LPS in humans (FIG. 6A)
  increase of resistin serum/plasma levels: over 400%
[7]; endotoxin induction, Examples 6-12
  putative maximum increase in resistin due to inflammation: 18 to 19 ng/mL
[7]; intravenous LPS 3 ng/kg, listed as endotoxemia
  increase of plasma resistin levels: > 7 fold
[7]; intravenous LPS 3 ng/kg, listed as endotoxin
  increase of plasma resistin levels: 3-5 fold
[7]; intravenous LPS 3 ng/kg, six normal volunteers
  time of peak resistin levels after LPS administration: 8 to 16 h

## CC(C)C[C@@H](C=O)NC(=O)[C@H](CC(C)C)NC(=O)[C@H](CC(C)C)NC(=O)OCc1ccccc1 [MG132] (Cbz-Leu-Leu-Leu-aldehyde)
[1]; MG132 treatment of macrophages, data not shown
  effect on endotoxin-induced activation of resistin expression: abrogated

## IL-6: cytokine interleukin-6
[1]; data not shown and Kaser et al, 2003
  effect on resistin: induces resistin modestly

## C[S+]([O-])c1ccc(-c2nc(-c3ccc(F)cc3)c(-c3ccncc3)[nH]2)cc1 (stereo not drawn) [SB20358]
[1]; 2.5 μM
  effect on induction of resistin by LPS: partially blocked

## COc1cccc(-c2cc(=O)c3ccccc3o2)c1N [PD98059]
[1]; 50 μM
  effect on induction of resistin by LPS: partially blocked
